31 compounds from US20100261706A1, “SUBSTITUTED TETRACYCLIC 1H-INDENO [1,2-B]PYRIDINE-2(5H)-ONE ANALOGS THEREOF AND USES THEREOF” (INOTEK PHARMACEUTICALS CORPORATION, priority 2008, published 2010) can be followed below.

What is called EC50 is the concentration needed to bring the measured effect to its halfway point.

Each structure is given as a SMILES string. Counter-ions that a name gives are not always drawn.

The test deals with T1, PARP (Mus musculus, UniProt P11103).
T1 construct: PARP Activity in Cultured Macrophages, Using a Whole-Cell Based Assay; endogenous in cells; host or cells: murine RAW macrophages (ATCC)
T1 sequence (P11103 whole entry): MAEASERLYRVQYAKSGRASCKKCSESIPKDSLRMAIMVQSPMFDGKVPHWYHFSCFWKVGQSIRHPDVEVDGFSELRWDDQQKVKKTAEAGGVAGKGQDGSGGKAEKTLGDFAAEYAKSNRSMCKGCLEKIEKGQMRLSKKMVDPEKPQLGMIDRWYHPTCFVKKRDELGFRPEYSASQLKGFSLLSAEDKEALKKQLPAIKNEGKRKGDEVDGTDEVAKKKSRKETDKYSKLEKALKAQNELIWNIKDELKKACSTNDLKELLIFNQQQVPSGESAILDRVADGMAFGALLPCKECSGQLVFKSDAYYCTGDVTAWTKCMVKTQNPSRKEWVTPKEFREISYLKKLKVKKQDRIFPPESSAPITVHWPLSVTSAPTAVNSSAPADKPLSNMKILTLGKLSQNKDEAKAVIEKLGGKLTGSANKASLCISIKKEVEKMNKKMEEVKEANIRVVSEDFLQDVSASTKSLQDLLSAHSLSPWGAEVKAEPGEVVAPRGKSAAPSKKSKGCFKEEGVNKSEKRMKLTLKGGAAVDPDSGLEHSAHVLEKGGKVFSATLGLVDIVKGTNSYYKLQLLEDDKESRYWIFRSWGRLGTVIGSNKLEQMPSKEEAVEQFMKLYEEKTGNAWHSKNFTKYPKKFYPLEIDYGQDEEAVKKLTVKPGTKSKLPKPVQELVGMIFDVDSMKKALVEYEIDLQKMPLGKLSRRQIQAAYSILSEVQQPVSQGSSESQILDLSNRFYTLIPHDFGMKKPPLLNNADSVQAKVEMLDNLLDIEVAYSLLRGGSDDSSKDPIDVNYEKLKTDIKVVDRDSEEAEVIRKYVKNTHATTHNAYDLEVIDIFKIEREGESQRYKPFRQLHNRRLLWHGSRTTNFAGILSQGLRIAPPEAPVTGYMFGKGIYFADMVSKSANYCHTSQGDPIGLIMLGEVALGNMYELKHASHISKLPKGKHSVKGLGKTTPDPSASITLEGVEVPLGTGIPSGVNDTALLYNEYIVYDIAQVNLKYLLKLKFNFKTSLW
The test is described as follows: PARP activity in cultured macrophages, whole-cell based assay (3H-NAD+ incorporation after hydrogen peroxide). The settings on record: murine RAW macrophages, 1 hour pretreatment, hydrogen peroxide 0.5 mM. How it is done:
Effect of Tetracyclic 1H-indeno[1,2-b]pyridine-2(511)-one Analogs on PARP Activity in Cultured Macrophages, Using a Whole-Cell Based Assay
The murine RAW macrophages (ATCC, American Type Culture Collection, Manassas, Va.) were grown in […] (Invitrogen Life Technologies; Carlsbad, Calif.) medium supplemented with 10% heat-inactivated FBS, 2 mM L-glutamine, and 100 U/ml of penicillin and streptomycin. Cells, between passages 5 and 15, were seeded at a density of 250,000 cells/well in 12 well plates and allowed to grow 48 hours before use. Growth medium was changed on the day of use. Cells were treated with a tetracyclic 1H-indeno[1,2-b]pyridine-2(5H)-one analog diluted in a growth medium supplemented with 10% fetal bovine serum (FBS) for 1 hour prior to the addition of hydrogen peroxide (0.5 mM) for a further 25 minutes. For the measurement of PARP activity, media was removed and replaced with 0.5 ml of the assay buffer (56 mM HEPES-pH 7.5, 28 mM KCl, 28 mM NaCl, 2 mM MgCl2, 0.01% digitonin, and 0.5 μCi/ml of ^3H-NAD^+) for 20 minutes. After aspirating the assay buffer, cells were lysed and transferred to eppendorf tubes containing 250 μl of 50% ice-cold trichloroacetic acid (TCA), which were then placed at 4° C. for 4 hours. Samples were centrifuged at 10,000 g for 10 minutes and supernatant removed. The pellets were washed twice with 500 μl of ice-cold 5% w/v TCA. The pellets were then solubilized in 250 μl of NaOH (0.1 M) containing 2% SDS overnight at 37° C. and the PARP activity was then determined by measuring the radioactivity incorporated using a Wallac scintillation counter. The solubilized protein (250 μl) was mixed with 5 ml of scintillation fluid (ScintiSafe Plus, Fisher Scientific) before being counted for 3 minutes. EC50 values were determined from a dose-response curve.
For `O=c1[nH]c2c(c3c1CCCC3)Cc1c(CN3CCCC3)cccc1-2` [Example 6, 10-(pyrrolidin-1-ylmethyl)-3,4,6,11-tetrahydro-1H-indeno[1,2-c]isoquinolin-5(2H)-one], the EC50 stood at 0.00846 µM. Then `O=c1[nH]c2c(c3c1CCCC3)Cc1c(CN3CCSC3)cccc1-2` [Example 13, 10-(thiazolidin-3-ylmethyl)-3,4,6,11-tetrahydro-1H-indeno[1,2-c]isoquinolin-5(2H)-one], with 0.169 µM; and `CCCCN1CCN(Cc2ccc3c(c2)Cc2c-3[nH]c(=O)c3c2CCCC3)CC1` [Example 44, 9-((4-butylpiperazin-1-yl)methyl)-3,4,6,11-tetrahydro-4H-indeno[1,2-c]isoquinolin-5(2H)-one], with 0.2 µM. In the case of `O=c1[nH]c2c(c3c1CCCC3)Cc1cc(CO)ccc1-2` [Example 33, 9-(hydroxymethyl)-3,4,6,11-tetrahydro-1H-indeno[1,2-c]isoquinolin-5(2H)-one], the EC50 came out at 0.095 µM. `COCCNCc1cccc2c1Cc1c-2[nH]c(=O)c2c1CCCC2` [Example 27, 10-((2-methoxyethylamino)methyl)-3,4,6,11-tetrahydro-1H-indeno[1,2-c]isoquinolin-5(2H)-one]: the EC50 turned out to be 0.016 µM. Then `O=c1[nH]c2c(c3c1CCCC3)Cc1c(CN3CCNCC3)cccc1-2` [Example 31, 10-(piperazin-1-ylmethyl)-3,4,6,11-tetrahydro-1H-indeno[1,2-c]isoquinolin-5(2H)-one], with 0.08 µM; and `CC(C)(N)c1cccc2c1Cc1c-2[nH]c(=O)c2c1CCCC2` [Example 46, 10-(2-aminopropan-2-yl)-3,4,6,11-tetrahydro-1H-indeno[1,2-c]isoquinolin-5(2H)-one], with 0.008 µM; and `CCOC1CCN(Cc2cccc3c2Cc2c-3[nH]c(=O)c3c2CCCC3)CC1` [Example 14, 10-((4-ethoxypiperidin-1-yl)methyl)-3,4,6,11-tetrahydro-1H-indeno[1,2-c]isoquinolin-5(2H)-one mesylate], with 0.0127 µM. Then `CN(C)Cc1cccc2c1Cc1c-2[nH]c(=O)c2c1CCCC2` [Example 28], with 0.035 µM; and `COC(=O)c1ccc2c(c1)Cc1c-2[nH]c(=O)c2c1CCCC2` [Example 30, methyl 5-oxo-2,3,4,5,6,11-hexahydro-1H-indeno[1,2-c]isoquinoline-9-carboxylate], with 0.25 µM; and `O=c1[nH]c2c(c3c1CCCC3)Cc1cc(CNC3CCCC3)ccc1-2` [Example 40, 9-((cyclopentylamino)methyl)-3,4,6,11-tetrahydro-1H-indeno[1,2-c]isoquinolin-5(2H)-one], with 0.06 µM. Then `CCN(CC)Cc1ccc2c(c1)Cc1c-2[nH]c(=O)c2c1CCCC2` [Example 64, 9-((diethylamino)methyl)-3,4,6,11-tetrahydro-1H-indeno[1,2-c]isoquinolin-5(2H)-one], with 0.00448 µM; and `O=c1[nH]c2c(c3c1CCCC3)Cc1c(CN3CCCCCCC3)cccc1-2` [Example 10, 10-(azocan-1-ylmethyl)-3,4,6,11-tetrahydro-1H-indeno[1,2-c]isoquinolin-5(2H)-one], with 0.037 µM; and `O=c1[nH]c2c(c3c1CCCC3)Cc1cc(CN3CCC(F)CC3)ccc1-2` [Example 66, 9-((4-fluoropiperidin-1-yl)methyl)-3,4,6,11-tetrahydro-1H-indeno[1,2-c]isoquinolin-5(2H)-one], with 0.0375 µM. On to `O=c1[nH]c2c(c3c1CCCC3)Cc1c(CN3CCCC3)cccc1-2` [Example 8, 10-(pyrrolidin-1-ylmethyl)-3,4,6,11-tetrahydro-1H-indeno[1,2-c]isoquinolin-5(2H)-one hydrochloride], for which the EC50 amounted to 0.0085 µM.

For `O=c1[nH]c2c(c3c1CCCC3)Cc1c(CN3CCCCC3)cccc1-2` [Example 4, 10-(piperidin-1-ylmethyl)-3,4,6,11-tetrahydro-1H-indeno[1,2-c]isoquinolin-5(2H)-one hydrochloride], the EC50 amounted to 0.0015 µM.

For `CCCN1CCN(Cc2ccc3c(c2)Cc2c-3[nH]c(=O)c3c2CCCC3)CC1` [Example 34, 9-((4-propylpiperazin-1-yl)methyl)-3,4,6,11-tetrahydro-M-indeno[1,2-c]isoquinolin-5(2H)-one], the EC50 amounted to 0.2 µM. The value for `COCCN1CCN(Cc2ccc3c(c2)Cc2c-3[nH]c(=O)c3c2CCCC3)CC1` [Example 35, 9-((4-(2-methoxyethyl)piperazin-1-yl)methyl)-3,4,6,11-tetrahydro-1H-indeno[1,2-c]isoquinolin-5(2H)-one] was 0.3 µM. The value for `COC(=O)c1cccc2c1Cc1c-2[nH]c(=O)c2c1CCCC2` [Example 63, methyl 5-oxo-2,3,4,5,6,11-hexahydro-1H-indeno[1,2-c]isoquinoline-10-carboxylate] was 0.1 µM; that for `O=c1[nH]c2c(c3c1CCCC3)Cc1cc(CN3CCC(F)(F)CC3)ccc1-2` [Example 65, 9-((4,4-difluoropiperidin-1-yl)methyl)-3,4,6,11-tetrahydro-1H-indeno[1,2-c]isoquinolin-5(2H)-one] was 0.748 µM. The value for `O=c1[nH]c2c(c3sccc13)Cc1c(CN3CCC(C(F)(F)F)CC3)cccc1-2` [Example 54, 9-((4-(trifluoromethyl)piperidin-1-yl)methyl)-5,10-dihydro-4H-indeno[1,2-b]thieno[2,3-d]pyridin-4-one] was above 0.5 µM; that for `O=c1[nH]c2c(c3c1CCCC3)Cc1c(CN3CCC(F)(F)CC3)cccc1-2` [Example 12, 10-((4,4-difluoropiperidin-1-yl)methyl)-3,4,6,11-tetrahydro-1H-indeno[1,2-c]isoquinolin-5(2H)-one] was 0.749 µM; that for `O=c1[nH]c2c(c3c1CCCC3)Cc1c(CO)cccc1-2` [Example 29, 10-(hydroxymethyl)-3,4,6,11-tetrahydro-1H-indeno[1,2-c]isoquinolin-5(2H)-one] was 0.025 µM.

For the compound `O=c1[nH]c2c(c3c1CCCC3)Cc1cc(CN3CCC(O)CC3)ccc1-2` [Example 38, 9-((4-hydroxypiperidin-1-yl)methyl)-3,4,6,11-tetrahydro-1H-indeno[1,2-c]isoquinolin-5(2H)-one], the EC50 was determined as 0.3 µM. Then `O=c1[nH]c2c(c3c1CCCC3)Cc1c(CN3CC[C@H](F)C3)cccc1-2` [Example 15, (S)-10-((3-fluoropyrrolidin-1-yl)methyl)-3,4,6,11-tetrahydro-1H-indeno[1,2-c]isoquinolin-5(2H)-one], with 0.0117 µM. On to `O=c1[nH]c2c(c3ccsc13)Cc1c(CN3CCC(C(F)(F)F)CC3)cccc1-2` [Example 47, 9-((4-(trifluoromethyl)piperidin-1-yl)methyl)-5,10-dihydro-4H-indeno[1,2-b]thieno[3,2-d]pyridin-4-one], for which the EC50 turned out to be 0.009 µM. Turning to `O=c1[nH]c2c(c3c1CCCC3)Cc1cc(CN3CCCC3)ccc1-2` [Example 39, 9-(pyrrolidin-1-ylmethyl)-3,4,6,11-tetrahydro-1H-indeno[1,2-c]isoquinolin-5(2H)-one], the EC50 was determined as 0.1 µM. For `O=c1[nH]c2c(c3c1CCCC3)Cc1c(CN3CCCCCC3)cccc1-2` [Example 5, 10-(azepan-1-ylmethyl)-3,4,6,11-tetrahydro-1H-indeno[1,2-c]isoquinolin-5(2H)-one], the EC50 came to 0.0078 µM. The value for `O=c1[nH]c2c(c3c1CCCC3)Cc1c(CN3CCC(N4CCCCC4)CC3)cccc1-2` [Example 22, 10-(1,4′-bipiperidin-1′-ylmethyl)-3,4,6,11-tetrahydro-1H-indeno[1,2-c]isoquinolin-5(2H)-one dihydrochloride] was 0.0078 µM; that for `O=c1[nH]c2c(c3c1CCCC3)Cc1cc(CN3CCOCC3)ccc1-2` [Example 37, 9-(morpholinomethyl)-3,4,6,1′-tetrahydro-4H-indeno[1,2-c]isoquinolin-5(2H)-one] was 0.3 µM. Then `O=c1[nH]c2c(c3ncccc13)Cc1c(CO)cccc1-2` [Example 57, 10-(hydroxymethyl)-6,11-dihydro-5H-indeno[1,2-h][1,6]naphthyridin-5-one], with 0.334 µM.
